Earlier results as cited in patent publication US20210153530A1, “FOOD PROTECTING COMPOSITION FOR MEAT, MEAT PRODUCTS AND DAIRY PRODUCTS” (priority 2018, published 2021).

Tests used:
[1] = system: moulds and yeasts; conditions: raw pork, heat-treated and pasteurised
[2] = system: coliform microorganisms and arerobic spore-forming microorganisms; conditions: raw pork goulash, heat-treated

Structure (SMILES): N=C(N)N [guanidium]
- effect on growth of moulds and yeasts [1]: has an effect on the growth
- influence on coliform and aerobic spore-forming microorganisms [2]: not significantly influenced
